Assay results taken from patent US9409914B2, “Triazolo[4,5-d]pyrimidine derivatives” (Merck Patent GmbH, priority 2012, dated 2016).

What was measured:
GCN2 [1] = target: T1, GCN2 (Homo sapiens, UniProt Q9P2K8); assay: Cellular assay for GCN2 activity (phospho-eIF2alpha immunocytochemistry, tryptophanol-stimulated U2OS cells); assay type: cell-based; set-up: endogenous in cells; host or cells: U2OS; settings: 2 hours compound, then 600 μM tryptophanol 30 minutes, anti-phospho-eIF2alpha, read-out: IC50 GCN2 (cell assay)
Protocol: Cellular Assay for the Determination of Compound Activities
Human U2OS cells (2000 cells/well) are seeded into 384-well plates and incubated for 20 hours.
The next day, the cells are treated with the test compounds and incubated for 2 hours. Then, tryptophanol, at a final concentration of 600 μM, is added to the cells and those are incubated for 30 minutes.
The analysis of cellular GCN2 activities is done by immunocytochemistry. Briefly, cells are fixated on the well surfaces by formaldehyde and permeabilised with Triton X-100. The primary antibody (anti-phospho-eIF2alpha (Ser51, Cell Signalling Technology, #3398) is incubated on the treated cells for 20 hours, followed by a 60 minutes incubation of the secondary antibody (anti-rabbit-IgG-Alexa 488; Molecular Probes #11008). The analysis and quantification of phosphorylated GCN2 is done by scanning the plates in the Acumen Explorer system (TTPLabtech). The obtained data are normalised against the untreated control wells (DMSO only) and expressed as % effect values. The determination of IC50 values is done by using the Graph Pad Prism software.
Target sequence in this assay (Q9P2K8 whole entry): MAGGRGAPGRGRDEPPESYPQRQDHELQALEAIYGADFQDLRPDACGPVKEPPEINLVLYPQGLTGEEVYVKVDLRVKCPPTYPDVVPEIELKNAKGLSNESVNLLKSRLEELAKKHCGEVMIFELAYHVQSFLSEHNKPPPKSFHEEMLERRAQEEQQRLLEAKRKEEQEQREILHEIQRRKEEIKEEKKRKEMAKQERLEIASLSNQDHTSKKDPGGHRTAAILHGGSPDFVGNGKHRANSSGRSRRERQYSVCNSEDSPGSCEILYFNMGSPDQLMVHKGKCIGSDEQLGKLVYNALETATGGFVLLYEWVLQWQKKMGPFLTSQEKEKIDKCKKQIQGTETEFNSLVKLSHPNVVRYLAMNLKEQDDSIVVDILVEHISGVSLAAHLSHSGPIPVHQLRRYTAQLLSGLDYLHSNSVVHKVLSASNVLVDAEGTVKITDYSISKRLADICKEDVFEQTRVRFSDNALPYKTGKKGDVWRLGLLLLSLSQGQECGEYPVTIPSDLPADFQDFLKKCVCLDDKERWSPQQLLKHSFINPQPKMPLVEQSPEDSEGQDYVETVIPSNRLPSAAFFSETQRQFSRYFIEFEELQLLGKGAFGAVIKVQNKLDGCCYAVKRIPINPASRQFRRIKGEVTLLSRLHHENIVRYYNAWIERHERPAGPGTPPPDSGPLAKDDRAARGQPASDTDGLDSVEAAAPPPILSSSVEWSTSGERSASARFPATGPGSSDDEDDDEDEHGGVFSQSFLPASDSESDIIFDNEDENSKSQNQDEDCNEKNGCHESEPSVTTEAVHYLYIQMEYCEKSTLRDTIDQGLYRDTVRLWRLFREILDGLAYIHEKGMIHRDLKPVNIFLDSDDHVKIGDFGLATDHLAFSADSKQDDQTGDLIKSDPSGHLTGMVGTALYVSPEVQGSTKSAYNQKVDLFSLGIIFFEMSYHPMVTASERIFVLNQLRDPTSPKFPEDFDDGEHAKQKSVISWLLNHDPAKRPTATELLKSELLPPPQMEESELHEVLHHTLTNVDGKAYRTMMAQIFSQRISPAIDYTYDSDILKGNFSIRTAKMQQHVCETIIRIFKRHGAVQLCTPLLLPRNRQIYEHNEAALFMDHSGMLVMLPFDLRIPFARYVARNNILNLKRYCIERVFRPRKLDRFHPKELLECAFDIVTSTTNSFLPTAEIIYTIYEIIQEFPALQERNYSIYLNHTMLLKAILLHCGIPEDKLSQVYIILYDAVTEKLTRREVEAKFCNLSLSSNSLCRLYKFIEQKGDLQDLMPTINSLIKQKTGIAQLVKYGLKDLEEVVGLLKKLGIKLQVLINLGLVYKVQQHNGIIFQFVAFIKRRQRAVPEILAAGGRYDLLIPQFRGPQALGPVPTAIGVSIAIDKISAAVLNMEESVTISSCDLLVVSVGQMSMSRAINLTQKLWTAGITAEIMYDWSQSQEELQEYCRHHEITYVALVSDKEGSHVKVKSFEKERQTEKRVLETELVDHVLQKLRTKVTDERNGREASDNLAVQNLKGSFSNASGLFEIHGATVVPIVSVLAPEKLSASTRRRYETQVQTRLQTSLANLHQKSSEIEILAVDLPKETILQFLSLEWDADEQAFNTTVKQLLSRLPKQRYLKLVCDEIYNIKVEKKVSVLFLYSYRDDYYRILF

GCN2 [2] = target: T1, GCN2; assay: GCN2 enzyme assay (TR-FRET Lanthascreen, phosphorylation of GFP-eIF2alpha); assay type: biochemical; settings: 10 μM ATP, 80 nM GFP-eIF2alpha, 30 nM GCN2, room temperature
Procedure, shortened: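 Two-step TR-FRET (Lanthascreen) format: GCN2 incubated at room temperature with 10 μM ATP and 80 nM GFP-labelled eIF2alpha, then stopped with EDTA. Phospho-eIF2alpha detected by Tb-labelled antibody, excitation 340 nm; activity taken from the 520/495 nm emission ratio.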
Target sequence in this assay (Q9P2K8 whole entry, species assumed): as the sequence (Q9P2K8 whole entry) above

IC50 (GCN2 [1]) [nM] | IC50 (GCN2 [2]) [nM] | SMILES
3000 to 50000 | < 300 | COCCOc1ccc(-n2nnc3cnc(Nc4cnn([C@H]5CC[C@H](O)CC5)c4)nc32)cc1 [Compound A108, 4-(4-{3-[4-(2-methoxy-ethoxy)-phenyl]-3H-[1,2,3]triazolo[4,5-d]pyrimidin-5-ylamino}-pyrazol-1-yl)-cyclohexanol]
3000 to 50000 | < 300 | CCOc1ccc(-n2nnc3cnc(Nc4cnn(CCN5CCOCC5)c4)nc32)cc1 [Compound A115, [3-(4-ethoxy-phenyl)-3H-[1,2,3]triazolo[4,5-d]pyrimidin-5-yl]-[1-(2-morpholin-4-yl-ethyl)-1H-pyrazol-4-yl]-amine]
300 to 3000 | < 300 | CCn1cc(Nc2ncc3nnn(-c4ccc(C(C)(C)O)cc4)c3n2)cn1 [Compound A121, 2-{4-[5-(1-ethyl-1H-pyrazol-4-ylamino)-[1,2,3]triazolo[4,5-d]pyrimidin-3-yl]-phenyl}-propan-2-ol]
300 to 3000 | < 300 | Fc1cccc(-n2nnc3cnc(Nc4cnn(C5CCOCC5)c4)nc32)c1 [Compound A122, [3-(3-fluoro-phenyl)-3H-[1,2,3]triazolo[4,5-d]pyrimidin-5-yl]-[1-(tetrahydro-pyran-4-yl)-1H-pyrazol-4-yl]-amine]
< 300 | < 300 | CCOc1ccc(-n2nnc3cnc(Nc4cnn(CCCC5CCNCC5)c4)nc32)cc1 [Compound A125, [3-(4-ethoxy-phenyl)-3H-[1,2,3]triazolo[4,5-d]pyrimidin-5-yl]-[1-(3-piperidin-4-yl-propyl)-1H-pyrazol-4-yl]-amine]
300 to 3000 | < 300 | CCn1cc(Nc2ncc3nnn(-c4ccc(C(C)(C)F)cc4)c3n2)cn1 [Compound A128, (1-ethyl-1H-pyrazol-4-yl)-{3-[4-(1-fluoro-1-methyl-ethyl)-phenyl]-3H-[1,2,3]triazolo[4,5-d]pyrimidin-5-yl}-amine]
300 to 3000 | < 300 | CC(C)(OCCO)c1ccc(-n2nnc3cnc(Nc4cnn(C5CCOCC5)c4)nc32)cc1 [Compound A130, 2-[1-methyl-1-(4-{5-[1-(tetrahydro-pyran-4-yl)-1H-pyrazol-4-ylamino]-[1,2,3]triazolo[4,5-d]pyrimidin-3-yl}-phenyl)-ethoxy]-ethanol]

Continued, compound first:

SMILES | IC50 (GCN2 [1]) [nM] | IC50 (GCN2 [2]) [nM]
CN1CCC(n2cc(Nc3ncc4nnn(-c5ccc(F)c(Cl)c5)c4n3)cn2)CC1 [Compound A111, [3-(3-chloro-4-fluoro-phenyl)-3H-[1,2,3]triazolo[4,5-d]pyrimidin-5-yl]-[1-(1-methyl-piperidin-4-yl)-1H-pyrazol-4-yl]-amine] | 3000 to 50000 | 300 to 3000
CCn1cc(Nc2ncc3nnn(-c4ccc(C(=O)OC)cc4)c3n2)cn1 [Compound A117, 4-[5-(1-ethyl-1H-pyrazol-4-ylamino)-[1,2,3]triazolo[4,5-d]pyrimidin-3-yl]-benzoic acid methyl ester] | 300 to 3000 | < 300
CN1CCC(n2cc(Nc3ncc4nnn(-c5cccc(F)c5)c4n3)cn2)CC1 [Compound A118, [3-(3-fluoro-phenyl)-3H-[1,2,3]triazolo[4,5-d]pyrimidin-5-yl]-[1-(1-methyl-piperidin-4-yl)-1H-pyrazol-4-yl]-amine] | 300 to 3000 | < 300
CC(C)(O)c1ccc(-n2nnc3cnc(Nc4cnn(C5CCOCC5)c4)nc32)cc1 [Compound A119, 2-(4-{5-[1-(tetrahydro-pyran-4-yl)-1H-pyrazol-4-ylamino]-[1,2,3]triazolo[4,5-d]pyrimidin-3-yl}-phenyl)-propan-2-ol] | 300 to 3000 | < 300
CN1CCC(n2cc(Nc3ncc4nnn(-c5ccc(F)c(F)c5)c4n3)cn2)CC1 [Compound A120, [3-(3,4-difluoro-phenyl)-3H-[1,2,3]triazolo[4,5-d]pyrimidin-5-yl]-[1-(1-methyl-piperidin-4-yl)-1H-pyrazol-4-yl]-amine] | 3000 to 50000 | 300 to 3000
COc1ccc(-n2nnc3cnc(Nc4cnn(CCn5cccn5)c4)nc32)nc1 [Compound A124, [3-(5-methoxy-pyridin-2-yl)-3H-[1,2,3]triazolo[4,5-d]pyrimidin-5-yl]-[1-(2-pyrazol-1-yl-ethyl)-1H-pyrazol-4-yl]-amine] | 3000 to 50000 | < 300
Fc1cccc(-n2nnc3cnc(Nc4cnn(CCn5cccn5)c4)nc32)c1 [Compound A126, [3-(3-fluoro-phenyl)-3H-[1,2,3]triazolo[4,5-d]pyrimidin-5-yl]-[1-(2-pyrazol-1-yl-ethyl)-1H-pyrazol-4-yl]-amine] | 3000 to 50000 | < 300
CCn1cc(Nc2ncc3nnn(-c4ccc(C(C)(C)OCCO)cc4)c3n2)cn1 [Compound A127, 2-(1-{4-[5-(1-ethyl-1H-pyrazol-4-ylamino)-[1,2,3]triazolo[4,5-d]pyrimidin-3-yl]-phenyl}-1-methyl-ethoxy)-ethanol] | 300 to 3000 | < 300
